# In patent EP3046573B1, “AMYLIN ANALOGUES” (Zealand Pharma A/S, priority 2013, dated 2015):
# Where two headings read alike, the source gives them in different places. Numbered stars: 1 amine (or outer) side, 2 acyl side, 3 side chain; on linkers, the order of the positions; unused ones are H or OH. Bridge positions count the residues as written; N and C are the ends. Square brackets hold non-standard residues; d marks the D form. Peptide text beside a SMILES is read from it. * marks the point of attachment. C20 diacid = O=C(O)CCCCCCCCCCCCCCCCCCC(=O)*; γGlu = O=C(O)[C@H](CCC(=O)[*:2])N[*:1]; NMeI = CC[C@H](C)[C@H](NC)C(=O)O; Sar = CNCC(=O)O
# What was measured:
# [1] = biological target: T1, human amylin receptor 3 (hAMYR3) consisting of hCTR2 co-expressed with human Receptor Activity Modifying Protein 3 (hRAMP3) (Homo sapiens, UniProt O60896+P30988); assay: hAMYR3 assay: induction of cAMP (AlphaScreen cAMP Assay kit) in COS7 cells expressing hAMYR3; assay type: cell-based
# T1 construct: expressed in transfected cells
# T1 sequence (P30988 25-474): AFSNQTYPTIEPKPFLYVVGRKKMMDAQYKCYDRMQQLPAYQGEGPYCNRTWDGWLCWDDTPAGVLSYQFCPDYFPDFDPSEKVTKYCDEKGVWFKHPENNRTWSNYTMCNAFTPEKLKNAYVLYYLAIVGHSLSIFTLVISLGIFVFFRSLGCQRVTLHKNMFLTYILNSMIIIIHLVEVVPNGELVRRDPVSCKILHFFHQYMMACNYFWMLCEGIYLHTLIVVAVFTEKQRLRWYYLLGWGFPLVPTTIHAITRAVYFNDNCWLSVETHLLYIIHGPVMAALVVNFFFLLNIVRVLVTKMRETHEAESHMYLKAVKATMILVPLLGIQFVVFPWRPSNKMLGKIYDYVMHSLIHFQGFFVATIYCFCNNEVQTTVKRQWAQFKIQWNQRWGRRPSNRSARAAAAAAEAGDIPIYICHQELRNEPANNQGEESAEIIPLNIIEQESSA
# T1 sequence (O60896 24-148 partner): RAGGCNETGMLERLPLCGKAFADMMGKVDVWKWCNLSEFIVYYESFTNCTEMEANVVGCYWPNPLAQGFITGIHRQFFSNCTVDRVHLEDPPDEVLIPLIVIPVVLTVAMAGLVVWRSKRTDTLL
# Procedure, shortened: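 Stable COS7 clone co-expressing hCTR2 and hRAMP3, stimulated 15 min at 37° C with increasing peptide in Tyrode buffer pH 7.4 with 100 µM IBMX and 0.1% casein. cAMP measured by AlphaScreen after lysis; EC50 and % efficacy versus pramlintide from 4PL fit.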
# [2] = Solubility assessment (turbidity absorbance at 325 nm); assay type: physicochemical; conditions: stock 2 mg/ml diluted 1:1, ambient temperature (typically 25°C), n=1; for Solubility, Acetate buffer pH 4: 100 mM acetate buffer pH 4.0; for Solubility, Acetate buffer pH 5: 100 mM acetate buffer pH 5.0; for Solubility, Histidine buffer pH 6: 100 mM histidine buffer pH 6.0; for Solubility, Histidine buffer pH 7: 100 mM histidine buffer pH 7.0; for Solubility, Phosphate buffer pH 6: 100 mM phosphate buffer pH 6.0; for Solubility, Phosphate buffer pH 7: 100 mM phosphate buffer pH 7.0; for Solubility, Phosphate buffer pH 7.5: 100 mM phosphate buffer pH7.5
# Procedure, shortened: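 Peptide stock (2 mg/ml, water pH 2.5) diluted 1:1 into 100 mM acetate (pH 4.0, 5.0), histidine (pH 6.0, 7.0) or phosphate (pH 6.0–7.5) buffer; absorbance at 325 nm read at about 25°C, n=1. A325 ≤ 0.02 taken as solubility ≥ 1 mg/ml.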
# [3] = biological target: T2, human calcitonin receptor (hCTR2) (Homo sapiens, UniProt P30988); assay: hCTR2 assay: induction of cAMP (AlphaScreen cAMP Assay kit) in COS7 cells expressing hCTR2; assay type: cell-based
# T2 construct: expressed in transfected cells
# T2 sequence (P30988 25-474): T1 sequence (P30988 25-474)
# Procedure, shortened: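 Functional agonism is measured as cAMP accumulation in a COS7 line stably transfected with hCTR2, lacking endogenous RAMPs. Peptides act for 15 min at 37° C with IBMX present, and curves are fitted with a 4-parameter logistic model.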
# [4] = cAMP induction in COS7 cells expressing hCTR2, average of a minimum of 3 determinations, read-out: hCTR2 EC50
# [5] = cAMP induction in COS7 cells expressing hAMYR3, average of a minimum of 3 determinations, read-out: hAMY R3 EC50
SMILES,EC50 [1] [nM],"Solubility, Acetate buffer pH 4 [2]","Solubility, Acetate buffer pH 5 [2]","Solubility, Histidine buffer pH 6 [2]","Solubility, Histidine buffer pH 7 [2]","Solubility, Phosphate buffer pH 6 [2]","Solubility, Phosphate buffer pH 7 [2]","Solubility, Phosphate buffer pH 7.5 [2]","EC50 [3, 4] [nM]","EC50 [1, 5] [nM]",EC50 [3] [nM]
"CC[C@H](C)[C@@H](C(=O)N[C@@H](CC(C)C)C(=O)N[C@@H](CO)C(=O)N[C@@H](CO)C(=O)N[C@H](C(=O)N[C@@H](CCC(=O)O)C(=O)N[C@H](C(=O)NCC(=O)N[C@@H](CO)C(=O)N[C@@H](CCC(=O)O)C(=O)N[C@H](C(=O)N1CCC[C@H]1C(N)=O)[C@@H](C)O)C(C)C)[C@@H](C)O)N(C)C(=O)[C@H](C)NC(=O)CN(C)C(=O)[C@H](Cc1ccccc1)NC(=O)[C@H](CO)NC(=O)[C@H](CO)NC(=O)[C@H](CO)NC(=O)[C@H](CO)NC(=O)[C@H](CCCNC(=N)N)NC(=O)[C@H](Cc1c[nH]cn1)NC(=O)[C@H](CC(C)C)NC(=O)[C@H](Cc1ccccc1)NC(=O)[C@H](CCC(=O)O)NC(=O)[C@H](C)NC(=O)[C@H](CC(C)C)NC(=O)[C@H](CCCNC(=N)N)NC(=O)[C@H](C)NC(=O)[C@@H](NC(=O)[C@H](C)NC(=O)[C@@H]1CSSC[C@H](NC(=O)[C@H](CCCNC(=N)N)NC(=O)CC[C@H](NC(=O)CCCCCCCCCCCCCCCCCCC(=O)O)C(=O)O)C(=O)N[C@@H](CCC(=O)O)C(=O)N[C@@H]([C@@H](C)O)C(=O)N[C@@H](C)C(=O)N[C@@H]([C@@H](C)O)C(=O)N1)[C@@H](C)O [Compound 146, [19CD]-isoGlu-RC()ETATC()ATARLAEFLHRSSSSF-Gly(Me)-A-Ile(Me)-LSSTEVGSETP-NH2] ({C20 diacid-γGlu}-RCETATCATARLAEFLHRSSSSF[Sar]A[NMeI]LSSTEVGSETP-NH2; disulfide 2-7)",0.15,SS (SS indicates solubility ≥ 1mg/ml),SS (SS indicates solubility ≥ 1mg/ml),SS (SS indicates solubility ≥ 1mg/ml),SS (SS indicates solubility ≥ 1mg/ml),SS (SS indicates solubility ≥ 1mg/ml),SS (SS indicates solubility ≥ 1mg/ml),SS (SS indicates solubility ≥ 1mg/ml),0.092,–,–
"CC[C@H](C)[C@@H](C(=O)N[C@@H](CC(C)C)C(=O)N[C@@H](CO)C(=O)N[C@@H](CO)C(=O)N[C@H](C(=O)N[C@@H](CCC(=O)O)C(=O)N[C@H](C(=O)NCC(=O)N[C@@H](CO)C(=O)N[C@@H](CCC(=O)O)C(=O)N[C@H](C(=O)N1CCC[C@H]1C(N)=O)[C@@H](C)O)C(C)C)[C@@H](C)O)N(C)C(=O)[C@H](C)NC(=O)CN(C)C(=O)[C@H](Cc1ccccc1)NC(=O)[C@H](CO)NC(=O)[C@H](CO)NC(=O)[C@H](CO)NC(=O)[C@H](CO)NC(=O)[C@H](CCCNC(=N)N)NC(=O)[C@H](Cc1c[nH]cn1)NC(=O)[C@H](CC(C)C)NC(=O)[C@H](Cc1ccccc1)NC(=O)[C@H](CCC(=O)O)NC(=O)[C@H](C)NC(=O)[C@H](CC(C)C)NC(=O)[C@H](CCCNC(=N)N)NC(=O)[C@H](C)NC(=O)[C@@H](NC(=O)[C@H](C)NC(=O)[C@@H]1CSSC[C@H](NC(=O)[C@H](CCCNC(=N)N)NC(=O)CC[C@H](NC(=O)CCCCCCCCCCCCCCCCCCC(=O)O)C(=O)O)C(=O)N2CCC[C@H]2C(=O)N[C@@H]([C@@H](C)O)C(=O)N[C@@H](C)C(=O)N[C@@H]([C@@H](C)O)C(=O)N1)[C@@H](C)O [Compound 147, [19CD]-isoGlu-RC()PTATC()ATARLAEFLHRSSSSF-Gly(Me)-A-Ile(Me)-LSSTEVGSETP-NH2] ({C20 diacid-γGlu}-RCPTATCATARLAEFLHRSSSSF[Sar]A[NMeI]LSSTEVGSETP-NH2; disulfide 2-7)",–,SS (SS indicates solubility ≥ 1mg/ml),II (II indicates solubility ≤ 1 mg/ml),SS (SS indicates solubility ≥ 1mg/ml),SS (SS indicates solubility ≥ 1mg/ml),SS (SS indicates solubility ≥ 1mg/ml),SS (SS indicates solubility ≥ 1mg/ml),SS (SS indicates solubility ≥ 1mg/ml),–,0.16,0.16
"CC[C@H](C)[C@@H](C(=O)N[C@@H](CC(C)C)C(=O)N[C@@H](CO)C(=O)N[C@@H](CO)C(=O)N[C@H](C(=O)N[C@@H](CCC(=O)O)C(=O)N[C@H](C(=O)NCC(=O)N[C@@H](CO)C(=O)N[C@@H](CCC(=O)O)C(=O)N[C@H](C(=O)N1CCC[C@H]1C(N)=O)[C@@H](C)O)C(C)C)[C@@H](C)O)N(C)C(=O)[C@H](C)NC(=O)CN(C)C(=O)[C@H](Cc1ccccc1)NC(=O)[C@H](CO)NC(=O)[C@H](CO)NC(=O)[C@H](CO)NC(=O)[C@H](CO)NC(=O)[C@H](CCCNC(=N)N)NC(=O)[C@H](Cc1c[nH]cn1)NC(=O)[C@H](CC(C)C)NC(=O)[C@H](Cc1ccccc1)NC(=O)[C@H](CCC(=O)O)NC(=O)[C@H](C)NC(=O)[C@H](CC(C)C)NC(=O)[C@H](CCCNC(=N)N)NC(=O)[C@H](CC(=O)O)NC(=O)[C@@H](NC(=O)[C@H](C)NC(=O)[C@@H]1CSSC[C@H](NC(=O)[C@H](CCCNC(=N)N)NC(=O)CC[C@H](NC(=O)CCCCCCCCCCCCCCCCCCC(=O)O)C(=O)O)C(=O)N[C@@H](CO)C(=O)N[C@@H]([C@@H](C)O)C(=O)N[C@@H](C)C(=O)N[C@@H]([C@@H](C)O)C(=O)N1)[C@@H](C)O [Compound 148, [19CD]-isoGlu-RC()STATC()ATDRLAEFLHRSSSSF-Gly(Me)-A-Ile(Me)-LSSTEVGSETP-NH2] ({C20 diacid-γGlu}-RCSTATCATDRLAEFLHRSSSSF[Sar]A[NMeI]LSSTEVGSETP-NH2; disulfide 2-7)",–,SS (SS indicates solubility ≥ 1mg/ml),SS (SS indicates solubility ≥ 1mg/ml),SS (SS indicates solubility ≥ 1mg/ml),SS (SS indicates solubility ≥ 1mg/ml),SS (SS indicates solubility ≥ 1mg/ml),SS (SS indicates solubility ≥ 1mg/ml),SS (SS indicates solubility ≥ 1mg/ml),0.14,0.17,–
"CC[C@H](C)[C@@H](C(=O)N[C@@H](CC(C)C)C(=O)N[C@@H](CO)C(=O)N[C@@H](CO)C(=O)N[C@H](C(=O)N[C@@H](CCC(=O)O)C(=O)N[C@H](C(=O)NCC(=O)N[C@@H](CO)C(=O)N[C@@H](CCC(=O)O)C(=O)N[C@H](C(=O)N1CCC[C@H]1C(N)=O)[C@@H](C)O)C(C)C)[C@@H](C)O)N(C)C(=O)[C@H](C)NC(=O)CN(C)C(=O)[C@H](Cc1ccccc1)NC(=O)[C@H](CO)NC(=O)[C@H](CO)NC(=O)[C@H](CO)NC(=O)[C@H](CO)NC(=O)[C@H](CCCNC(=N)N)NC(=O)[C@H](Cc1c[nH]cn1)NC(=O)[C@H](CC(C)C)NC(=O)[C@H](Cc1ccccc1)NC(=O)[C@H](CCC(=O)O)NC(=O)[C@H](C)NC(=O)[C@H](CC(C)C)NC(=O)[C@H](CCCNC(=N)N)NC(=O)[C@H](CC(=O)O)NC(=O)[C@@H](NC(=O)[C@H](C)NC(=O)[C@@H]1CSSC[C@H](NC(=O)[C@H](CCCNC(=N)N)NC(=O)CC[C@H](NC(=O)CCCCCCCCCCCCCCCCCCC(=O)O)C(=O)O)C(=O)N[C@@H](CC(=O)O)C(=O)N[C@@H]([C@@H](C)O)C(=O)N[C@@H](C)C(=O)N[C@@H]([C@@H](C)O)C(=O)N1)[C@@H](C)O [Compound 149, [19CD]-isoGlu-RC()DTATC()ATDRLAEFLHRSSSSF-Gly(Me)-A-Ile(Me)-LSSTEVGSETP-NH2] ({C20 diacid-γGlu}-RCDTATCATDRLAEFLHRSSSSF[Sar]A[NMeI]LSSTEVGSETP-NH2; disulfide 2-7)",–,SS (SS indicates solubility ≥ 1mg/ml),SS (SS indicates solubility ≥ 1mg/ml),SS (SS indicates solubility ≥ 1mg/ml),SS (SS indicates solubility ≥ 1mg/ml),SS (SS indicates solubility ≥ 1mg/ml),SS (SS indicates solubility ≥ 1mg/ml),SS (SS indicates solubility ≥ 1mg/ml),–,0.26,0.16
